Data reported in paper PMC6556873, “Rapid Covalent-Probe Discovery by Electrophile-Fragment Screening” (Journal of the American Chemical Society, 2019).
Like-named read-outs stand apart in the source and are kept apart here.

How the values were obtained:
BSA = target: T1, BSA (Bos taurus, UniProt P02769); set-up: Intact protein LC/MS covalent labelling, fragments in pools of five, 200 uM each, 4 °C; details: 24 h, 4 °C, pool of five; 200 µM; covalent
T1 construct: gene ALB

NUDT7 = target: T2, NUDT7 (Homo sapiens, UniProt P0C024); set-up: Intact protein LC/MS covalent labelling, fragments in pools of five, 200 uM each, 4 °C; details: 24 h, 4 °C, pool of five; 200 µM; covalent
T2 construct: residues 14-235, E. coli, pNIC28-Bsa4, N-terminal His6 tag removed by TEV, construct 26672 Da
T2 sequence (P0C024 14-235): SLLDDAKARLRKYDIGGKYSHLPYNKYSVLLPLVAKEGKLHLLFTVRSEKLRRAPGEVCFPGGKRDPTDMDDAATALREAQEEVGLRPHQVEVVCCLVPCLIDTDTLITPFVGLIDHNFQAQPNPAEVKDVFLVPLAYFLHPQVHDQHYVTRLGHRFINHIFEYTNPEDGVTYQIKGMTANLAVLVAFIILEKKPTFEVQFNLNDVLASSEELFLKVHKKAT

OTUB2 (OTUB2A) = target: T3, OTUB2 (OTUB2A) (Homo sapiens, UniProt Q96DC9); set-up: Intact protein LC/MS covalent labelling, fragments in pools of five, 200 uM each, 4 °C; details: 24 h, 4 °C, pool of five; 200 µM; covalent
T3 construct: full length residues 1-234, E. coli BL21(DE3)-R3, His tag removed by TEV, construct 27312 Da
T3 sequence (Q96DC9 1-234): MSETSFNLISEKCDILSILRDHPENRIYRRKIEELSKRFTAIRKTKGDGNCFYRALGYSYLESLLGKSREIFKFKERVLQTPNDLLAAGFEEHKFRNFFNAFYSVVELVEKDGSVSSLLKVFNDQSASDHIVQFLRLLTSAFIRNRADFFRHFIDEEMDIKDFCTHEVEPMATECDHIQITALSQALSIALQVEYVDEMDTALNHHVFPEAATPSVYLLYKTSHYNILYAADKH

PCAF = target: T4, PCAF (Homo sapiens, UniProt Q92831); set-up: Intact protein LC/MS covalent labelling, fragments in pools of five, 200 uM each, 4 °C; details: 24 h, 4 °C, pool of five; 200 µM; covalent
T4 construct: gene KAT2B
T4 sequence (Q92831 whole entry, the tested form may be a part): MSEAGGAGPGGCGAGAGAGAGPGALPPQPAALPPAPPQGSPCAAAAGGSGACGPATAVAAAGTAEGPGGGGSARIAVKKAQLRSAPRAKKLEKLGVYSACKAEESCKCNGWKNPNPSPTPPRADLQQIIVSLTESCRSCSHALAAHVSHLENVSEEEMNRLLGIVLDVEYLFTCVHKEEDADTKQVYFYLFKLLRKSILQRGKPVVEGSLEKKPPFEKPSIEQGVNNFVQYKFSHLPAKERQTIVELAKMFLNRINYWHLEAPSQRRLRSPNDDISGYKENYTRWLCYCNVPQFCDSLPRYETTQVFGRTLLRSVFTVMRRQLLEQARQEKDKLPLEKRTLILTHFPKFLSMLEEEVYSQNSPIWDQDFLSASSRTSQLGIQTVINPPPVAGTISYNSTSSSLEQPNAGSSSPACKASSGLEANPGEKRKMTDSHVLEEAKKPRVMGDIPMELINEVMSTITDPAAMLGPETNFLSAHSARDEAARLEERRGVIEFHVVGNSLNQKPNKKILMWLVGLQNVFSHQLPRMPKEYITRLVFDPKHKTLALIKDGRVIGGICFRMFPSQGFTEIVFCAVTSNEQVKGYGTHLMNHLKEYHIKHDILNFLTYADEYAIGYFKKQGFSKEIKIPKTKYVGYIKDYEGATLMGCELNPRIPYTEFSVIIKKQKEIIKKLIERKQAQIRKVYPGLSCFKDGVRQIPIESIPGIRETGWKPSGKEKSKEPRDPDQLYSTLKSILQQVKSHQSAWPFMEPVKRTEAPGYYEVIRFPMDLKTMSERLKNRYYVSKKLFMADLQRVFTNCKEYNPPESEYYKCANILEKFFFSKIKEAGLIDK

in vitro [1] = assay: in vitro; set-up: species or system CCD841, HEK293; details: human, hb2 cells, read-out: HB-2 Cells Viability (%)
in vitro [2] = assay: in vitro; set-up: species or system HB2, HEK293; details: human, ccd841 cells
in vitro [3] = assay: in vitro; set-up: species or system HB2, CCD841; details: human, hek293 cells

T1 sequence (P02769 whole entry, the tested form may be a part): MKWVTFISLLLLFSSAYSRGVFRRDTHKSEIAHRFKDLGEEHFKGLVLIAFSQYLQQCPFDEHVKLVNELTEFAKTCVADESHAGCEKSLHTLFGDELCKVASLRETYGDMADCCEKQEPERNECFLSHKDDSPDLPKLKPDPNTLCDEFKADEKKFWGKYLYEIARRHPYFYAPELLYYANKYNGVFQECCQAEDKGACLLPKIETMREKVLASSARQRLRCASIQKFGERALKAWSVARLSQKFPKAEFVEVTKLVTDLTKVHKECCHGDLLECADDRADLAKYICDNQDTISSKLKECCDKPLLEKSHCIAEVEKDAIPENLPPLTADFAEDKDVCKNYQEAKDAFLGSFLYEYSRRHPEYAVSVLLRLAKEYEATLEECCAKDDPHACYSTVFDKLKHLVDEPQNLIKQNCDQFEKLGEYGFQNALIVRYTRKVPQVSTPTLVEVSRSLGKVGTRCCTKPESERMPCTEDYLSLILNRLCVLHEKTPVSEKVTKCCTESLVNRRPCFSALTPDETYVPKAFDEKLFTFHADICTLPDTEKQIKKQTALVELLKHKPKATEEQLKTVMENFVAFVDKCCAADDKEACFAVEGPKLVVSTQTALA

BSA (BSA)	NUDT7 (NUDT7)	OTUB2 (OTUB2 (OTUB2A))	PCAF (PCAF)	Compound	viability at 48 h, 10 µM (in vitro [1]) [%]	viability at 48 h, 10 µM (in vitro [2]) [%]	viability at 48 h, 10 µM (in vitro [3]) [%]
0	0.06	0	0	O=C(CCl)Nc1cc(Cl)ccc1Cl [PCM-0102288]	40.7	70.8	38.4
0	0.89	0	0	O=C(CCl)Nc1nc2ccc(F)cc2s1 [PCM-0102294]	53	62.7	76.7
0	0.54	0.38	0	Cn1nc(-c2ccc(Cl)cc2)cc1NC(=O)CCl [PCM-0102296]	1.6	4.5	0.5
0.13	0	0.59	0	Cc1cc(CNC(=O)CCl)ccc1F [PCM-0102305]	85.5	80.7	57.8
0	0	0	0	O=C(CCl)Nc1ccccc1C(=O)O [PCM-0102307]	105	96.5	78.8
0	0.15	0	0	O=C(CCl)Nc1ccccc1Br [PCM-0102312]	90.8	89.7	92.9
0	0.28	0.36	0	O=C(CCl)Nc1ccc(Cl)c([N+](=O)[O-])c1 [PCM-0102316]	0.4	1	1.1
0	0	0.24	0	Cc1ccc(NC(=O)CCl)cc1 [PCM-0102320]	29.1	63.2	8.7
0	0	0	0	O=C(CCl)Nc1cc(C(F)(F)F)ccc1N1CCCC1 [PCM-0102321]	104	116	110
0	0.07	0.17	0	O=C(CCl)Nc1ccc(C(F)(F)F)cc1 [PCM-0102323]	11.1	53.2	5.5
0.24	0	0.31	0	O=C(CCl)Nc1ccc(F)c(F)c1 [PCM-0102328]	14.3	30.4	1.4
0	0	0	0	O=C(CCl)Nc1cccc2c1N=S=N2 [PCM-0102329]	38.2	50.1	19.9
0	0.36	0.26	0	O=C(CCl)Nc1cc2c(cc1Cl)OCCCO2 [PCM-0102331]	17.2	57.1	10.3
0	0	0.25	0	CC(NC(=O)CCl)c1ccc(Cl)cc1 (centres unmarked) [PCM-0102334]	78.4	67.8	68.5
0	0.06	0.3	0	CS(=O)(=O)c1ccc(NC(=O)CCl)cc1 [PCM-0102335]	37.1	46	2.7

Second part, the molecule before the results:

Compound	BSA (BSA)	NUDT7 (NUDT7)	OTUB2 (OTUB2 (OTUB2A))	PCAF (PCAF)	viability at 48 h, 10 µM (in vitro [1]) [%]	viability at 48 h, 10 µM (in vitro [2]) [%]	viability at 48 h, 10 µM (in vitro [3]) [%]
N#Cc1c(NC(=O)CCl)sc2c1CCCCC2 [PCM-0102286]	0	0.33	0	0	44.3	73.9	39.9
Cl.O=C(CCl)N1CCN(Cc2cccc3ccccc23)CC1 [PCM-0102287]	0	0	0.29	0	9.4	21.7	19.9
O=C1CN(C(=O)CCl)c2ccc(C(F)(F)F)cc2N1 [PCM-0102289]	0	0	0	0	89.3	96.4	94.7
O=C(CCl)NC1CS(=O)(=O)CC1Cl (centres unmarked) [PCM-0102291]	0	0.12	0	0	99.6	76.3	91.6
CC1CCCCC1NC(=O)NC(=O)CCl (centres unmarked) [PCM-0102292]	0	0	0.24	0	52.8	69	48.6
O=C(CCl)N1N=C(c2cccs2)CC1c1ccco1 (centres unmarked) [PCM-0102295]	0	0.46	0.06	0	5	7.9	1.4
O=C(CCl)Nc1cc2c(cc1Br)OCCO2 [PCM-0102299]	0	0.27	0.67	0	15.8	62.8	12.6
CCc1cc(C(=O)NNC(=O)CCl)sc1C [PCM-0102300]	0	0.11	0.83	0	45.9	74.3	75.8
N#CC1(N2CCN(C(=O)CCl)CC2)CCCCC1 [PCM-0102303]	0	0	0.07	0	103	107	91.6
O=C(CCl)N1CCN(C(=O)c2cccs2)CC1 [PCM-0102306]	0	0	0	0	39.9	63.6	12.9
O=C(CCl)NC(=O)Nc1ccc(Br)cc1 [PCM-0102308]	0.11	0.17	0.1	0	78.8	89.9	71.6
O=C(CCl)N(C1CCCC1)C1CCS(=O)(=O)C1 (centres unmarked) [PCM-0102313]	0	0.11	0	0	64.5	65.9	42.7
COc1ccc2c(c1)CCCN2C(=O)CCl [PCM-0102325]	0	0.12	0	0	7.5	40.2	1.8
O=C(CCl)Nc1ncc(Br)s1 [PCM-0102326]	0	0	0.06	0	38	47.7	23
O=C(CCl)N1CCN(S(=O)(=O)c2cccc(F)c2)CC1 [PCM-0102327]	0	0.13	0	0	5.2	45.3	8.1
CC1CCCC(NC(=O)NC(=O)CCl)C1C (centres unmarked) [PCM-0102332]	0	0	0	0	48.7	71	52.5
O=C(CCl)NC(=O)Nc1ccc2c(c1)OCO2 [PCM-0102333]	0	0.29	0.53	0	83.2	98.4	82.6
